molecular target: human NaV 1.8 (Homo sapiens, UniProt Q9Y5Y9); assay: E-VIPR assay detecting and measuring NaV inhibition properties; type: cell-based; settings: HEK cells expressing a truncated form of human NaV 1.8; electrical stimulation, membrane potential FRET dyes
Text: E-VIPR Assay Detecting and Measuring NaV Inhibition Properties
Sodium ion channels are voltage-dependent proteins that can be activated by inducing membrane voltage changes by applying electric fields. The electrical stimulation instrument and methods of use, referred to as E-VIPR, are described in International Publication No. WO 2002/008748 A3 and C.-J. Huang et al. Characterization of voltage-gated sodium channel blockers by electrical stimulation and fluorescence detection of membrane potential, 24 Nature Biotech. 439-46 (2006), both of which are incorporated by reference in their entirety. The instrument comprises a microtiter plate handler, an optical system for exciting the coumarin dye while simultaneously recording the coumarin and oxonol emissions, a waveform generator, a current- or voltage-controlled amplifier, and parallel electrode pairs that are inserted into assay plate wells. Under integrated computer control, this instrument passes user-programmed electrical stimulus protocols to cells within the wells of the microtiter plate.
16-20 hours prior to running the assay on E-VIPR, HEK cells expressing a truncated form of human NaV 1.8 with full channel activity were seeded into microtiter 384-well plates, pre-coated with matrigel, at a density of 25,000 cells per well. 2.5-5% KIR2.1 Bacmam virus was added to the final cell suspension before seeding into cell plates. HEK cells were grown in Dulbecco's Modified Eagle's Medium (DMEM) supplemented with 10% FBS (Fetal Bovine Serum, qualified; Sigma #F4135), 1% NEAA (Non-Essential Amino Acids, Gibco #11140), 1% HEPES (Gibco #15630), 1% Pen-Strep (Penicillin-Streptomycin; Gibco #15140) and 5 μg/ml Blasticidin (Gibco #R210-01). Cells were expanded in vented cap cell culture flasks, with 90-95% humidity and 5% CO2.
Reagents and Stock Solutions:
100 mg/mL Pluronic F-127 (Sigma #P2443), in dry DMSO
Compound Plates: Corning 384-well Polypropylene Round Bottom #3656
Cell Plates: 384-well tissue culture treated plates (Greiner #781091-2B)
2.5-5% KIR 2.1 Bacmam virus (produced in-house), prepared as described in Section 3.3 of J. A. Fornwald et al., Gene Expression in Mammalian Cells Using BacMam, a Modified Baculovirus System, 1350 Methods in Molecular Biology 95-116 (2016), the entire contents of which are incorporated by reference. The concentration used can be dependent on viral titer of each batch.
5 mM DiSBAC6(3), a voltage sensitive oxonol acceptor (CAS number 169211-44-3; 5-[3-(1,3-dihexylhexahydro-4,6-dioxo-2-thioxo-5-pyrimidinyl)-2-propen-1-ylidene]-1,3-dihexyldihydro-2-thioxo-4,6(1H,5H)-pyrimidinedione), in dry DMSO. The preparation of DiSBAC6(3) is analogous to that of DiSBAC4(3) as described in Voltage Sensing by Fluorescence Resonance Energy Transfer in Single Cells, Gonzalez, J. E. and Tsien, R. Y. (1995) Biophys. J. 69, 1272-1280.
5 mM CC2-DMPE, a commercially available membrane-bound coumarin phospholipid FRET donor (ThermoFisher Scientific catalog number K1017, CAS number 393782-57-5; tetradecanoic acid, 1,1′-[(1R)-1-[8-(6-chloro-7-hydroxy-2-oxo-2H-1-benzopyran-3-yl)-3-hydroxy-3-oxido-8-oxo-2,4-dioxa-7-aza-3-phosphaoct-1-yl]-1,2-ethanediyl]ester) was prepared in dry DMSO. See also, Improved indicators of cell membrane potential that use fluorescence resonance energy transfer, Gonzalez, J. E. and Tsien, R. Y. (1997) Chem. Biol. 4, 269-277.
Voltage Assay Background Suppression Compound (VABSC-1) is prepared in H2O (89-363 mM, range used to maintain solubility)
Human Serum (HS, Millipore #S1P1-01KL, or Sigma SLBR5469V and SLBR5470V as a 50%/50% mixture, for 25% assay final concentration)
Bath 1 Buffer: • Sodium Chloride 160 mM (9.35 g/L), Potassium Chloride, 4.5 mM (0.335 g/L), Glucose 10 mM (1.8 g/L), Magnesium Chloride (Anhydrous) 1 mM (0.095 g/L), Calcium Chloride 2 mM (0.222 g/L), HEPES 10 mM (2.38 g/L) in water. […]

Chain of human NaV 1.8 (Q9Y5Y9 126-1722 limits assumed): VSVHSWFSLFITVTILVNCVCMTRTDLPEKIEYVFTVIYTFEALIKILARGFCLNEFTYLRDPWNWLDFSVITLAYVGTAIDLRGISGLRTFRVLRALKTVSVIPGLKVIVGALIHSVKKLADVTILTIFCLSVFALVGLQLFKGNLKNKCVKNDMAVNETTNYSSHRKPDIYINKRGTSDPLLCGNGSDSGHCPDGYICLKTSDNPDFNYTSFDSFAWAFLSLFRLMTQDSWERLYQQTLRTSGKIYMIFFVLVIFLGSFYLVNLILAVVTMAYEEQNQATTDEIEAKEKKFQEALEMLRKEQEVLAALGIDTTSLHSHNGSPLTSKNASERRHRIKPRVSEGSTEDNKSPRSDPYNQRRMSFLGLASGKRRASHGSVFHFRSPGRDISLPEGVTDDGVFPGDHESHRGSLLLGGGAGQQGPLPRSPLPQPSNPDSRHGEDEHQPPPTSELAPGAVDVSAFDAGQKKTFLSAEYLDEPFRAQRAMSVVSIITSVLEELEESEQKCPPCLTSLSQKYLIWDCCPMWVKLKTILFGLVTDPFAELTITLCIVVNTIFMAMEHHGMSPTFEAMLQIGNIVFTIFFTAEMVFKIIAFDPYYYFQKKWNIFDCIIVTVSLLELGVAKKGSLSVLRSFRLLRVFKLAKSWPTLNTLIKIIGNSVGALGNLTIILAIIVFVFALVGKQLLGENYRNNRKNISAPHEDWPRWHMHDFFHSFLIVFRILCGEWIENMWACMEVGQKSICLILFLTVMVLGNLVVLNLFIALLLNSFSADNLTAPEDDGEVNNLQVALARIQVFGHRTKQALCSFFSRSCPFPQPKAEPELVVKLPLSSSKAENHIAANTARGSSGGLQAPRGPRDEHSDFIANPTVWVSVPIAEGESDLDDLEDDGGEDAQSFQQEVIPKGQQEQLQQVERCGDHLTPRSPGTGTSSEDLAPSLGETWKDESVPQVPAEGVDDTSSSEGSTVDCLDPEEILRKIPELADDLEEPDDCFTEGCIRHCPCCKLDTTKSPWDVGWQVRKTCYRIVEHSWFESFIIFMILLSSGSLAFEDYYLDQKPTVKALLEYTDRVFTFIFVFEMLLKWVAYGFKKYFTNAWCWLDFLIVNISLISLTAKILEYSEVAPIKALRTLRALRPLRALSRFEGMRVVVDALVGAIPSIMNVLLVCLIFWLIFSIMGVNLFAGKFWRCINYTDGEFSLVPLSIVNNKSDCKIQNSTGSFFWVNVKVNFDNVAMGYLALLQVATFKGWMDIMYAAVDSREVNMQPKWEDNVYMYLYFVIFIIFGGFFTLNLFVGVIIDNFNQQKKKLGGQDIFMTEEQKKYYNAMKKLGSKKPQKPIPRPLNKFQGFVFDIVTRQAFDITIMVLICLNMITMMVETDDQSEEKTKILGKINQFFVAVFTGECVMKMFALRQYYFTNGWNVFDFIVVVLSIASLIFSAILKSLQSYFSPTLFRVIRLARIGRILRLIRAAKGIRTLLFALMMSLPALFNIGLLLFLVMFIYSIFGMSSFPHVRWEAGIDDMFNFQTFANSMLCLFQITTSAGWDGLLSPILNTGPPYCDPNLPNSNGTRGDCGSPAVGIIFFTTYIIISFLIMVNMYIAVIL

First: COCCC(O)c1ccc(NC(=O)[C@@H]2O[C@@](C)(C(F)(F)F)[C@@H](C)[C@H]2c2ccc(F)c(F)c2OC)cn1 (single isomer, unassigned) [Compound 22, rel-(2R*,3S*,4S*,5R*)-3-(3,4-difluoro-2-methoxyphenyl)-N-(6-(1-hydroxy-3-methoxypropyl)pyridin-3-yl)-4,5-dimethyl-5-(trifluoromethyl)tetrahydrofuran-2-carboxamide]
Second: COc1c([C@H]2[C@H](C(=O)Nc3ccc([C@H](O)CO)nc3)O[C@@](C)(C(F)(F)F)[C@H]2C)ccc(F)c1F (single isomer, unassigned) [Compound 2]
The IC50 of the first is higher: 10 to 100 nM for the first, under 10 nM for the second. The second is the more potent here.

First: CCOc1ccc([C@H]2[C@H](C(=O)Nc3ccc([C@@H](O)CO)nc3)O[C@@](C)(C(F)(F)F)[C@H]2C)c2c1OC(F)(F)O2 (single isomer, unassigned) [Compound 75, rel-(2R,3S,4S,5R)-N-(6-((R*)-1,2-dihydroxyethyl)pyridin-3-yl)-3-(7-ethoxy-2,2-difluorobenzo[d][1,3]dioxol-4-yl)-4,5-dimethyl-5-(trifluoromethyl)tetrahydrofuran-2-carboxamide]
Second: CCOc1c([C@H]2[C@H](C(=O)Nc3ccc([C@H](O)CO)nc3)O[C@@](C)(C(F)(F)F)[C@H]2C)ccc(F)c1C (single isomer, unassigned) [Compound 42, rel-(2R,3S,4S,5R)-N-(6-((S*)-1,2-dihydroxyethyl)pyridine-3-yl)-3-(2-ethoxy-4-fluoro-3-methylphenyl)-4,5-dimethyl-5-(trifluoromethyl)tetrahydrofuran-2-carboxamide]
The IC50 of the first is higher: at least 1000 nM for the first, under 10 nM for the second. The second is the more potent here.

[2H]C([2H])([2H])Oc1c([C@H]2[C@H](C(=O)Nc3ccc([C@@H](O)CO)nc3)O[C@@](C)(C(F)(F)F)[C@H]2C)ccc(F)c1F [Compound 8, (2R,3S,4S,5R)-3-(3,4-difluoro-2-(methoxy-d3)phenyl)-N-(6-((R)-1,2-dihydroxyethyl)pyridin-3-yl)-4,5-dimethyl-5-(trifluoromethyl)tetrahydrofuran-2-carboxamide] and COc1c([C@H]2[C@H](C(=O)Nc3ccc(C(O)CF)nc3)O[C@@](C)(C(F)(F)F)[C@H]2C)ccc(F)c1F (single isomer, unassigned) [Compound 16, rel-(2R*,3S*,4S*,5R*)-3-(3,4-difluoro-2-methoxyphenyl)-N-(6-(2-fluoro-1-hydroxyethyl)pyridin-3-yl)-4,5-dimethyl-5-(trifluoromethyl)tetrahydrofuran-2-carboxamide] cannot be ordered by IC50: under 10 nM for the first, under 10 nM for the second.

First: COc1c([C@@H]2[C@@H](C(=O)Nc3ccc([C@@H](O)CO)nc3)O[C@](C)(C(F)(F)F)[C@@H]2C)cccc1C(F)(F)F (single isomer, unassigned) [Compound 69, rel-(2S,3R,4R,5S)-N-(6-((R*)-1,2-dihydroxyethyl)pyridin-3-yl)-3-(2-methoxy-3-(trifluoromethyl)phenyl)-4,5-dimethyl-5-(trifluoromethyl)tetrahydrofuran-2-carboxamide]
Second: COc1c([C@H]2[C@H](C(=O)Nc3ccc([C@@H](O)CO)nc3)O[C@@](C)(C(F)(F)F)[C@H]2C)ccc(F)c1C (single isomer, unassigned) [Compound 47, rel-(2R,3S,4S,5R)-N-(6-((R*)-1,2-dihydroxyethyl)pyridin-3-yl)-3-(4-fluoro-2-methoxy-3-methylphenyl)-4,5-dimethyl-5-(trifluoromethyl)tetrahydrofuran-2-carboxamide]
The IC50 of the first is higher: at least 1000 nM for the first, under 10 nM for the second.

CCOc1c([C@@H]2[C@@H](C(=O)Nc3ccc([C@@H](O)CO)nc3)O[C@](C)(C(F)(F)F)[C@@H]2C)ccc(F)c1C (single isomer, unassigned) [Compound 41, rel-(2S,3R,4R,5S)—N-(6-((R*)-1,2-dihydroxyethyl)pyridin-3-yl)-3-(2-ethoxy-4-fluoro-3-methylphenyl)-4,5-dimethyl-5-(trifluoromethyl)tetrahydrofuran-2-carboxamide] and C[C@H]1[C@@H](c2ccc(F)c(F)c2O)[C@H](C(=O)Nc2ccc([C@@H](O)CO)nc2)O[C@@]1(C)C(F)(F)F [Compound 36, (2R,3S,4S,5R)-3-(3,4-difluoro-2-hydroxyphenyl)-N-(6-((R)-1,2-dihydroxyethyl)pyridin-3-yl)-4,5-dimethyl-5-(trifluoromethyl)tetrahydrofuran-2-carboxamide] cannot be ordered by IC50: at least 1000 nM for the first, 100 to 1000 nM for the second.

First: COc1c([C@H]2[C@H](C(=O)Nc3ccc([C@H](O)CO)[n+]([O-])c3)O[C@@](C)(C(F)(F)F)[C@H]2C)ccc(F)c1C (relative stereo) [Compound 59, rel-2-((S*)-1,2-dihydroxyethyl)-5-((2R,3S,4S,5R)-3-(4-fluoro-2-methoxy-3-methylphenyl)-4,5-dimethyl-5-(trifluoromethyl)tetrahydrofuran-2-carboxamido)pyridine 1-oxide]
Second: COc1c([C@H]2[C@H](C(=O)Nc3ccc([C@H](O)[C@H](C)O)nc3)O[C@@](C)(C(F)(F)F)[C@H]2C)ccc(F)c1F (single isomer, unassigned) [Compound 4, rel-(2R*,3S*,4S*,5R*)-3-(3,4-difluoro-2-methoxyphenyl)-N-(6-((1S,2S)-1,2-dihydroxypropyl)pyridin-3-yl)-4,5-dimethyl-5-(trifluoromethyl)tetrahydrofuran-2-carboxamide]
The IC50 of the first is higher: 10 to 100 nM for the first, under 10 nM for the second. The second is the more potent here.

Compared with COc1c(C2C(C(=O)Nc3cnc(CO)nc3)OC(C)(C(F)(F)F)C2C)ccc(F)c1C(F)F (single isomer, unassigned) [Compound 55], COc1c(C2C(C(=O)Nc3ccc(CO)nc3)OC(C)(C(F)(F)F)C2C)ccc(C(F)F)c1F (single isomer, unassigned) [Compound 91] is lower in IC50: 100 to 1000 nM for the first, 10 to 100 nM for the second. The second is the more potent here.

COc1nc(C(F)F)ccc1[C@H]1[C@H](C(=O)Nc2ccc(CO)nc2)O[C@@](C)(C(F)(F)F)[C@H]1C (stereo in doubt) [Compound 88, rel-(2R,3S,4S,5R)-3-(6-(difluoromethyl)-2-methoxypyridin-3-yl)-N-(6-(hydroxymethyl)pyridin-3-yl)-4,5-dimethyl-5-(trifluoromethyl)tetrahydrofuran-2-carboxamide] and Cc1c([C@@H]2[C@@H](C(=O)Nc3ccc(CO)nc3)O[C@@](C)(C(F)(F)F)[C@H]2C)ccc(F)c1F (single isomer, unassigned) [Compound 79] cannot be ordered by IC50: 100 to 1000 nM for the first, at least 1000 nM for the second.

C[C@@]1(C(F)(F)F)C[C@@H](c2ccc(OC(F)(F)F)cc2Cl)[C@H](C(=O)Nc2ccc([C@@H](O)CO)nc2)O1 (single isomer, unassigned) [Compound 63, rel-(2R,3S,5S)-3-(2-chloro-4-(trifluoromethoxy)phenyl)-N-(6-((R*)-1,2-dihydroxyethyl)pyridin-3-yl)-5-methyl-5-(trifluoromethyl)tetrahydrofuran-2-carboxamide] and C[C@]1(C(F)(F)F)C[C@H](c2ccc(OC(F)(F)F)cc2Cl)[C@@H](C(=O)Nc2ccc([C@@H](O)CO)nc2)O1 (single isomer, unassigned) [Compound 64, rel-(2S,3R,5R)-3-(2-chloro-4-(trifluoromethoxy)phenyl)-N-(6-((R*)-1,2-dihydroxyethyl)pyridin-3-yl)-5-methyl-5-(trifluoromethyl)tetrahydrofuran-2-carboxamide] cannot be ordered by IC50: at least 1000 nM for the first, at least 1000 nM for the second.

Cc1c([C@@H]2[C@@H](C(=O)Nc3ccc(CO)nc3)O[C@](C)(C(F)(F)F)[C@@H]2C)ccc(F)c1F (single isomer, unassigned) [Compound 78] gave an IC50 of at least 1000 nM.

— patent US11827627B2, “N-(hydroxyalkyl (hetero)aryl) tetrahydrofuran carboxamides as modulators of sodium channels” (VERTEX PHARMACEUTICALS INCORPORATED, priority 2021, dated 2023)
